Reference: PMC7580722, “Design of new disubstituted imidazo[1,2-b]pyridazine derivatives as selective Haspin inhibitors. Synthesis, binding mode and anticancer biological evaluation” (Journal of Enzyme Inhibition and Medicinal Chemistry, 2020)
Where two headings read alike, the source gives them in different places. Each block holds one compound with its values, some of them ahead of it.

Key:
[1] = test system: Haspin; set-up: method as in PMID 23071153, PMID 23071152, PMID 21804608, PMID 19734450, PMID 18978305; conditions: Figure 1, known Haspin inhibitors; cited from earlier work
[2] = target: T1, HsHaspin (Homo sapiens, UniProt Q8TF76); test: Recombinant Haspin kinase assay ([γ-33P]ATP, 15 µM ATP; some values ADP-Glo); format: biochemical; conditions: for IC50 / Haspin inhibitory activity (in words): recombinant HsHaspin; for IC50: in vitro
T1 construct: aa470-798; made in house; host or cells: E. coli
T1 sequence (Q8TF76 470-798): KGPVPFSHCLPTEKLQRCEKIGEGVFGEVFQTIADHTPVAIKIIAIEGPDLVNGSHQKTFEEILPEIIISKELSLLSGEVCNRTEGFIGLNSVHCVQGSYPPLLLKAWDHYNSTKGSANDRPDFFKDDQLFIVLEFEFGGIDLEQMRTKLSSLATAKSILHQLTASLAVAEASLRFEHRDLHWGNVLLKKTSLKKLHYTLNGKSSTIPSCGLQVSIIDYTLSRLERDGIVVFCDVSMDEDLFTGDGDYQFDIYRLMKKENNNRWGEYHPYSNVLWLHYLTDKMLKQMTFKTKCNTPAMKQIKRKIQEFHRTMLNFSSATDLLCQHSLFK
Description: (§1) Values are IC50 expressed in µM and calculated from dose–response curves (each point on the curves was performed in triplicate). Selectivity indexes (SI; in brackets) are calculated as follows: SI = IC50 kinase X/IC50 Haspin. ND: not determined. *IC50 values obtained using the ADP-Glo methodology (see Experimental section, Supplementary Material). […]
(§2) A, HsCdk9/Cyclin T). Native SscCK1δ /ε and SscGSK3α/β were purified from pig brain whereas HsPlk1, HsCdk1 and HsAurora B were purchased from ProQinase and SignalChem respectively. Kinase assays were performed in […]
(§3) mCi/ml; PerkinElmer) in a final volume of 30 µl as previously reported 51. After 30 min incubation at 30°C, the reaction mix was spotted onto GE healthcare P81 phosphocellulose paper using a FilterMate Harvester (PerkinElmer), and the filter was extensively washed with a 1% phosphoric acid solution. The wet filter-bound radioactivity was determined in the presence of 20 µl scintillation fluid (GE healthcare) with a TopCount® Scintillation and Luminescence Counter (PerkinElmer). IC50 values were calculated from dose-response curves […]
(§4) Kinase activities using the ADP-Glo methodology (ADP-Glo Kinase Assay; Promega) were assayed according to the assay described in Nguyen et al. 52 and Ibrahim et al. 53. […]

[3] = target: T2, HsAurora B (Homo sapiens, UniProt Q96GD4); test: Aurora B kinase assay; format: biochemical
T2 construct: purchased SignalChem
T2 sequence (Q96GD4 whole entry): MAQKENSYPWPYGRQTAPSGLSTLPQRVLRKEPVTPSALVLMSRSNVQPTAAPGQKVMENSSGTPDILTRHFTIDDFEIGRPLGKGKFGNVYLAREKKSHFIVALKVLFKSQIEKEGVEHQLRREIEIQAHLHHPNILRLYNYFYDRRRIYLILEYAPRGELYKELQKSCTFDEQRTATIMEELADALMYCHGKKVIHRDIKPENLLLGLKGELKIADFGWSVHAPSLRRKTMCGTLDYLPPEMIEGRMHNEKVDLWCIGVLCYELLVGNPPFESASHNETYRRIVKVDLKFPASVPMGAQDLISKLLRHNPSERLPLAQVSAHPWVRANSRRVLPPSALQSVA
Description: as §1
Recombinant protein kinases were expressed and purified from E. coli (HsHaspin kinase domain aa470-798, HsCdk5/p25, RnDYRK1A kinase domain aa1-499, HsPIM1, MmCLK1) or baculovirus/Sf9 cells (HsCdk2/Cyclin A, HsCdk9/Cyclin T). Native SscCK1δ /ε and SscGSK3α/β were purified from pig brain whereas HsPlk1, HsCdk1 and HsAurora B were purchased from ProQinase and SignalChem respectively. Kinase assays were performed in specific buffers and substrates for each kinase tested in the presence of 15 µM [γ-33P] ATP (3,000 Ci/mmol, 10 mCi/ml; PerkinElmer) in a final volume of 30 µl as previously reported 51. After 30 min incubation at 30°C, the reaction mix was spotted onto GE healthcare P81 phosphocellulose paper using a FilterMate Harvester (PerkinElmer), and the filter was extensively washed with a 1% phosphoric acid solution. The wet filter-bound radioactivity was determined in the presence of 20 µl scintillation fluid (GE healthcare) with a TopCount® Scintillation and Luminescence Counter (PerkinElmer). IC50 values were calculated from dose-response curves […]
as §4

[4] = target: T3, HsCDK1 (Homo sapiens, UniProt P06493); test: CDK1 kinase assay; format: biochemical; conditions: for SI CDK1/Haspin: SI = IC50 CDK1/IC50 Haspin; for IC50: Table 4, read-out: IC50 HsCDK1
T3 construct: purchased ProQinase
T3 sequence (P06493 whole entry): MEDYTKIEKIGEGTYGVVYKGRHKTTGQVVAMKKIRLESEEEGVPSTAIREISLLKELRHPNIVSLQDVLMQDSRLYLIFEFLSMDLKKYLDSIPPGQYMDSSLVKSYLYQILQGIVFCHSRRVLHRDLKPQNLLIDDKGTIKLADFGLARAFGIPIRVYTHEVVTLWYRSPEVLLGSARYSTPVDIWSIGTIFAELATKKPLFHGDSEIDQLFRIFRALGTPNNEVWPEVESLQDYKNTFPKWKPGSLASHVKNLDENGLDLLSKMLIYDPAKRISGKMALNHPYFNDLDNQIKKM
T3 sequence (P14635 whole entry partner): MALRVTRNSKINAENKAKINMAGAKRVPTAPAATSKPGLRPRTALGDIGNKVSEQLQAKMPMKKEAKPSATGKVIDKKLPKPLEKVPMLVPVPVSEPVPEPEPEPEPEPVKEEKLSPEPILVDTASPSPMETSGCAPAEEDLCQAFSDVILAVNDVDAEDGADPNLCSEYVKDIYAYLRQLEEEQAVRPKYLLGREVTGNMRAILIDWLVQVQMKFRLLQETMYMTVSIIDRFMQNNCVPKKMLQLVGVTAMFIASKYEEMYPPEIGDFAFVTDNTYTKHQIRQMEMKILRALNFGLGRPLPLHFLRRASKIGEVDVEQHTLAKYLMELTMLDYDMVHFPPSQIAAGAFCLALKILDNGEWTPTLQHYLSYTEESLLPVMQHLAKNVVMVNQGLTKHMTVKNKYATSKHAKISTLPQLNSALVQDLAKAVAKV
Description: We therefore tested our compounds on two obvious candidates, HsCDK1 and HsPLK1 (Polo-like_kinase 1) both required for mitotic entry[50]
(§5) Values are IC50 expressed in µM and calculated from dose–response curves (each point from the curves was performed in duplicate). NR: not relevant. […]
(§6) Recombinant protein kinases were expressed and purified from E. coli (HsHaspin kinase domain aa470-798, HsCdk5/p25, RnDYRK1A kinase domain aa1-499, HsPIM1, MmCLK1) or baculovirus/Sf9 cells (HsCdk2/Cyclin A, HsCdk9/Cyclin T). Native SscCK1δ /ε and SscGSK3α/β were purified from pig brain whereas HsPlk1, HsCdk1 and HsAurora B were purchased from ProQinase and SignalChem respectively. Kinase assays were performed in specific buffers and substrates for each kinase tested in the presence of 15 µM [γ-33P] ATP (3,000 Ci/mmol, 10 mCi/ml; PerkinElmer) in a final volume of 30 µl as previously reported 51. After 30 min incubation at 30°C, the reaction mix was spotted onto GE healthcare P81 phosphocellulose paper using a FilterMate Harvester (PerkinElmer), and the filter was extensively washed with a 1% phosphoric acid solution. The wet filter-bound radioactivity was determined in the presence of 20 µl scintillation fluid (GE healthcare) with a TopCount® Scintillation and Luminescence Counter (PerkinElmer). IC50 values were calculated from dose-response curves

[5] = target: T4, HsPLK1 (Homo sapiens, UniProt P53350); test: PLK1 kinase assay; format: biochemical; conditions: Table 4
T4 construct: purchased ProQinase
T4 sequence (P53350 whole entry): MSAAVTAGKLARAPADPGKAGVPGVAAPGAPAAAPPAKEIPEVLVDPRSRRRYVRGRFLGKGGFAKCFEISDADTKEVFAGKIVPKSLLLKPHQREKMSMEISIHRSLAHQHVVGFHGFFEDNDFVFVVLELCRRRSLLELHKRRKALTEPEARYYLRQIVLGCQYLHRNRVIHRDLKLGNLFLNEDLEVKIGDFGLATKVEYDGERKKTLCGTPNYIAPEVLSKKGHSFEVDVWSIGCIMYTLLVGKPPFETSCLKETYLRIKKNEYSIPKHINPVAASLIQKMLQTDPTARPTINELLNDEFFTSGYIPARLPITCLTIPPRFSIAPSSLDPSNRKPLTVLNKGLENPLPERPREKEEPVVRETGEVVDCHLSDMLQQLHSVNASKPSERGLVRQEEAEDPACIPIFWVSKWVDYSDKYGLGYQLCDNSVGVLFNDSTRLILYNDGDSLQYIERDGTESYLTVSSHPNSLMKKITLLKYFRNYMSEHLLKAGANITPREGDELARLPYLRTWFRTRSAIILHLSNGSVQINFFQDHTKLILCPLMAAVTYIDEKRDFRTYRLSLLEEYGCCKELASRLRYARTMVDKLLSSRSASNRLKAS
Description: . We therefore tested our compounds on two obvious candidates, HsCDK1 and HsPLK1 (Polo-like_kinase 1) both required for mitotic entry[50] (Table 4).
as §5, §6

[6] = test system: RPE-1; test: Cell viability, monolayer (2D), MTS assay; format: cell-based; conditions: Homo sapiens, 48 h
[7] = test system: U-2 OS; test: Cell viability, monolayer (2D), MTS assay; format: cell-based; conditions: Homo sapiens, U2OS, 48 h
[8] = test system: SH-SY5Y; test: Cell viability, monolayer (2D), MTS assay; format: cell-based; conditions: Homo sapiens, 48 h
[9] = test system: HCT116; test: Cell viability, monolayer (2D), MTS assay; format: cell-based; conditions: Homo sapiens, HCT-116, 48 h
[10] = test system: HBL100; test: Cell viability, monolayer (2D), MTS assay; format: cell-based; conditions: Homo sapiens, HBL-100, 48 h
[11] = test system: U-2 OS spheroids; test: Spheroid (3D) viability, CellTiter-Glo; format: cell-based, human; conditions: 5 µM; for viability at 5 µM: Homo sapiens, U2OS
[12] = test system: HCT116 spheroids; test: Spheroid (3D) viability, CellTiter-Glo; format: cell-based, human; conditions: 5 µM, 10 days, Figure 4(A)
[13] = test system: HBL100 spheroids; test: Spheroid (3D) viability, CellTiter-Glo; format: cell-based, human; conditions: Figure 4(A)
[14] = test system: Haspin activity (H3T3ph) in U-2 OS cells; test: In-cell Haspin activity, H3T3ph immunofluorescence; format: cell-based, human; conditions: 24 h; for H3T3ph signal remaining in prometaphase cells (% of ctrl): 0.5 µM
[15] = test system: U-2 OS cells; test: Scratch wound cell migration assay (IncuCyte); format: cell-based, human; conditions: 0.6 µM, 0.5% FBS, normalised against DMSO control (100%)
[16] = test system: U-2 OS cells; test: Cell cycle analysis by flow cytometry (propidium iodide); conditions: 2.5 µM, 24 h, U-2 OS
[17] = target: T5, HsCdk2/Cyclin A (Homo sapiens, UniProt P24941); test: CDK2 kinase assay; format: biochemical; conditions: read-out: IC50 CDK2
T5 construct: made in house; host or cells: baculovirus/Sf9 cells
Description: as §1, §2, §3, §4

- IC50 [2]: 31 nM
- melting point: 195 to 197 °C
Structure (SMILES): c1cc2[nH]ncc2cc1-c1cnc2ccc(NC3CCCC3)nn12 [Compound 9]

- melting point: 240 to 242 °C
Structure (SMILES): c1cc2[nH]ncc2cc1-c1cnc2ccc(NC3CCCCC3)nn12 [Compound 10]

- melting point: 231 to 233 °C
Structure (SMILES): c1cc2[nH]ncc2cc1-c1cnc2ccc(N3CCCCC3)nn12 [Compound 11]

- melting point: 198 to 200 °C
Structure (SMILES): CCCOc1ccc2ncc(-c3ccc4[nH]ncc4c3)n2n1 [Compound 13]

- average SI ([2]; average selectivity index over the protein kinases tested vs Haspin): 23.6
- IC50 [2]: 69 nM
- Aurora B inhibition (in words) [3]: did not inhibit Aurora B kinase
- SI CDK1/Haspin [4]: 11.5
- IC50 [4]: 795 nM
- IC50 [5]: > 10000 nM
- EC50 [8]: > 10000 nM
- EC50 [9]: 1700 nM
- melting point: 205 to 207 °C
Structure (SMILES): CCOc1ccc2ncc(-c3ccc4[nH]ncc4c3)n2n1 [Compound 14]
- EC50 [6]: 3700 nM
- EC50 [7]: 2800 nM
- EC50 [10]: 9500 nM
- viability at 5 µM ([11]; 48 h, 2 days, Figure 4(B), read-out: U-2 OS spheroid remaining viability): 6.9%
- viability at 5 µM ([11]; 240 h, 10 days, Figure 4(A), read-out: U-2 OS spheroid viability (% of DMSO control)): 5%
- viability at 5 µM ([11]; 48 h, Figure 4(A), read-out: U-2 OS spheroid viability (% of DMSO control)): 33%
- HCT116 spheroid viability [12]: remained mostly unresponsive
- HBL100 spheroid viability ([13]; 5 µM, 10 days): remained mostly unresponsive
- viability at 5 µM ([13]; Homo sapiens, HBL-100, 48 h, read-out: HBL-100 spheroid viability (% of DMSO control)): 73%
- H3T3ph signal remaining in prometaphase cells (% of ctrl) [14]: 11.9%
- normalised wound closure after 24 h [15]: 73%
- cells in G2/M phase (% of cell total population) ([16]; DMSO control 12.8%): 24.4%
- cells in S phase (% of cell total population) ([16]; DMSO control 51.9%): 45.2%

- IC50 [2]: 12 nM
- IC50 [17]: 5300 nM
- SI CDK1/Haspin [4]: 239
- IC50 [4]: 2870 nM
- IC50 [5]: > 10000 nM
- EC50 [8]: > 10000 nM
- EC50 [9]: > 10000 nM
Structure (SMILES): c1cc2[nH]ncc2cc1-c1cnc2ccc(OC[C@H]3CNCCO3)nn12 [Compound 22]
- EC50 [6]: 6000 nM
- EC50 [7]: 8600 nM
- EC50 [10]: > 10000 nM
- U-2 OS spheroid remaining viability ([11]; 2 days, Figure 4(B)): no effects
- H3T3ph signal remaining in prometaphase cells (% of ctrl) [14]: 10.7%
- inhibition at 0.05 µM ([14]; Homo sapiens, U2OS, 0.05 µM, read-out: inhibition of cellular Haspin activity): > 80%
- normalised wound closure after 24 h [15]: around 100%

- IC50 [2]: 25 nM
Structure (SMILES): c1cc2[nH]ncc2cc1-c1cnc2ccc(OC[C@@H]3COCCN3)nn12 [Compound 23]

- IC50 [2]: 20 nM
Structure (SMILES): c1cc2[nH]ncc2cc1-c1cnc2ccc(OC[C@H]3COCCN3)nn12 [Compound 24]

- Haspin inhibitory activity (in words) [2]: very active
Structure (SMILES): c1cc2[nH]ncc2cc1-c1cnc2ccc(OCC3CCCN3)nn12 (stereo not shown) [Compound 25]

- Haspin inhibitory activity (in words) [2]: very active
Structure (SMILES): c1cc2[nH]ncc2cc1-c1cnc2ccc(OCC3CCCN3)nn12 (stereo not shown) [Compound 26]

- Aurora B inhibition at 10 µM (in words) [3]: did not affect this enzyme at 10 µM
Structure (SMILES): CCCNc1ccc2ncc(-c3cnc(N)nc3)n2n1 [Compound 28, 3-(2-Aminopyrimidin-5-yl)-6-(propylamino)imidazo[1,2-b]pyridazine]

- IC50 [4]: > 10000 nM
- IC50 [5]: > 10000 nM
- EC50 [8]: > 10000 nM
- EC50 [9]: > 10000 nM
Structure (SMILES): CCCNc1ccc2ncc(-c3cccc4ccccc34)n2n1 [Compound 29, 3-(Naphthalen-1-yl)-N-propylimidazo[1,2-b]pyridazin-6-amine]
- EC50 [6]: > 10000 nM
- EC50 [7]: > 10000 nM
- EC50 [10]: > 10000 nM
- normalised wound closure after 24 h [15]: around 100%

- Haspin inhibitory activity (in words) [2]: lost their activity for Haspin
- Aurora B inhibition at 10 µM (in words) [3]: did not affect this enzyme at 10 µM
Structure (SMILES): c1cnn2c(-c3ccc4[nH]ncc4c3)cnc2c1 [Compound 30, 3-(1H-Indazol-5-yl)imidazo[1,2-b]pyridazine]

Structure (SMILES): COc1ccc2c(c1)[nH]c1c(C)nccc12 [Harmine]
- IC50 [1]: 590 nM

Structure (SMILES): COc1ccc2c3ccnc(C(F)(F)F)c3n(CCCCN)c2c1 [LDN-211898]
- IC50 [1]: 100 nM

Structure (SMILES): CN1CCC(CNc2ccc3ncc(-c4cccc(OC(F)(F)F)c4)n3n2)CC1 [SGI-1776]
- IC50 [1]: 34 nM
